Four compounds from publication PMC6547622 (ACS Omega, 2019) can be followed below.

Assay type in all cases: biochemical
The target in one test is βPGM from L. lactis (Lactococcus lactis subsp. lactis, UniProt P71447). The test can be described thus: IC50 determination of βPGM.
Test [1] concerns the target T1, αPMM/PGM from P. aeruginosa (Pseudomonas aeruginosa, UniProt P26276).
T1 sequence (P26276 1-463): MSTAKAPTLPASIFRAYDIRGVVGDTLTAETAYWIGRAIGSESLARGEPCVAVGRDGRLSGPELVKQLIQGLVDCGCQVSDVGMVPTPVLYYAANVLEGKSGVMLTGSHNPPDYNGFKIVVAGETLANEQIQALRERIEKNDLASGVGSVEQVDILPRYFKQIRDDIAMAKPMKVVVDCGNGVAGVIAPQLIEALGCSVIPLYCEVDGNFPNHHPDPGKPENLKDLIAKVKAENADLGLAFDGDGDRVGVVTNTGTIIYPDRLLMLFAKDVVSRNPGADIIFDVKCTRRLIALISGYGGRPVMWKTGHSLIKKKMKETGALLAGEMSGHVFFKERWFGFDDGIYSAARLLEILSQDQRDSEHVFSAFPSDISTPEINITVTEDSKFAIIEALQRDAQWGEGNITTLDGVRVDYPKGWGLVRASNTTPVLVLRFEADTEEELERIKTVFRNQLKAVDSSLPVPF
The test can be described thus: IC50 determination of αPMM/PGM.

A further test concerns the target T2, αPMM/PGM (Pseudomonas aeruginosa, UniProt P26276).
T2 sequence (P26276 1-463): T1 sequence (P26276 1-463)
The test can be described thus: Michaelis Menten kinetics of αPMM/PGM. The following applies: read-out: Km(αG1P), variable αG1P 0–200 µM.

By IC50 is commonly meant the concentration that inhibits the measured activity by half. Low readings indicate greater potency in that assay, high ones weaker potency in that assay. As a reminder, the Ki is a dissociation constant, usually derived from enzyme kinetics or from competition with a known ligand. Low readings indicate higher affinity, high ones lower affinity. At βPGM from L. lactis, `O=P(O)(O)OC[C@H]1O[C@@](O)(CF)[C@H](O)[C@@H](O)[C@@H]1O` [compound 2, 1-Deoxy-1-monofluoro-α-D-gluco-heptulose 7-Phosphate] came in with an IC50 of 183 ± 14 µM and a Ki of 92 ± 7 µM. Besides, in test [1], the IC50 worked out at 234 ± 29 µM and the Ki stood at 117 ± 14 µM.

On to `C[C@]1(O)O[C@H](COP(=O)(O)O)[C@@H](O)[C@H](O)[C@H]1O` [compound 1, 1-Deoxy-α-D-gluco-heptulose 7-Phosphate], for which the IC50 against βPGM from L. lactis was 113 ± 3 µM; in test [1], 131 ± 1 µM. The Ki at βPGM from L. lactis turned out to be 57 ± 2 µM; in test [1] it was 65 ± 0.5 µM.

What is called Km is the concentration of substrate that gives half-maximal velocity. With `O=P(O)(O)O[C@H]1O[C@H](CO)[C@@H](O)[C@H](O)[C@H]1O` [αG1P, glucose 1-phosphate], on αPMM/PGM, the Km stood at 20 µM.

As for `O=P(O)(O)OC[C@H]1O[C@@](O)(C(F)F)[C@H](O)[C@@H](O)[C@@H]1O` [compound 3, 1-Deoxy-1,1-difluoro-α-D-gluco-heptulose 7-Phosphate], at βPGM from L. lactis, it took 214 ± 11 µM to reach half-maximal inhibition (IC50) and the Ki came out at 107 ± 6 µM. In test [1], this compound gave an IC50 of 288 ± 37 µM and a Ki of 144 ± 18 µM.
